Results: the supplement of paper PMC10627819

Columns and labels:
Experiment in all cases: fitness (endpoint OD595 vs no drug) (fraction); higher = more growth
S. aureus DSM 20231 = tested on: S. aureus DSM 20231
In short: (§1)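 Fitness is computed from the optical density at which cultures reach stationary phase, divided by the robust mean of no-drug control wells. Any value above 1 is set to 1. Cultures started at OD595 0.01 in 384-well plates with TSB, LB Lennox or CY at 37 °C, and OD595 was read every 30 min for 14 h against a first-reading background.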

S. aureus Newman = tested on: S. aureus Newman
In short: as §1

B. subtilis 168 = tested on: B. subtilis 168
In short: as §1
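Also: OD595 on entry to stationary phase over no-drug wells; at most 1.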

N[C@@H]1CONC1=O [Cycloserine D] + COc1c(N2C[C@@H]3CCCN[C@@H]3C2)c(F)cc2c(=O)c(C(=O)O)cn(C3CC3)c12 [Moxifloxacin]
fitness
Settings | first compound 0.125 µg/mL | first compound 0.25 µg/mL | first compound 0.375 µg/mL | first compound 0.5 µg/mL | first compound 0.75 µg/mL | first compound 1.5 µg/mL
B. subtilis 168, partner 0.0312 µg/mL | 0.0481 | 0.0489 | – | 0.0432 | – | –
B. subtilis 168, partner 0.0625 µg/mL | 0.033 | 0.034 | – | 0.028 | – | –
B. subtilis 168, partner 0.125 µg/mL | 0.0229 | 0.0218 | – | 0.03 | – | –
B. subtilis 168, partner 2 µg/mL | 0.0539 | 0.0355 | – | 0.0265 | – | –
B. subtilis 168, partner 4 µg/mL | 0.0542 | 0.0318 | – | 0.0298 | – | –
B. subtilis 168, partner 8 µg/mL | 0.04 | 0.0429 | – | 0.0319 | – | –
S. aureus DSM 20231, partner 0.0075 µg/mL | – | – | 0.827 | – | 0.85 | 0.844
S. aureus DSM 20231, partner 0.015 µg/mL | – | – | 0.713 | – | 0.712 | 0.687
S. aureus DSM 20231, partner 0.03 µg/mL | – | – | 0.575 | – | 0.586 | 0.564
S. aureus Newman, partner 0.0075 µg/mL | – | – | 0.761 | – | 0.753 | 0.705
S. aureus Newman, partner 0.015 µg/mL | – | – | 0.599 | – | 0.552 | 0.586
S. aureus Newman, partner 0.03 µg/mL | – | – | 0.119 | – | 0.0631 | 0.06

fitness, S. aureus DSM 20231, one replicate
Settings | first compound 0.375 µg/mL | first compound 0.75 µg/mL | first compound 1.5 µg/mL
partner 0.06 µg/mL | 0.658 | 0.656 | 0.654
partner 0.12 µg/mL | 0.483 | 0.518 | 0.483

N[C@@H]1CONC1=O [Cycloserine D] + COc1ccc(C[C@H](N)C(=O)N[C@H]2[C@@H](O)[C@H](n3cnc4c(N(C)C)ncnc43)O[C@@H]2CO)cc1 [Puromycin]
fitness
Settings | first compound 0.125 µg/mL | first compound 0.25 µg/mL | first compound 0.375 µg/mL | first compound 0.5 µg/mL | first compound 0.75 µg/mL | first compound 1.5 µg/mL
B. subtilis 168, partner 0.39 µg/mL | 0.958 | 0.889 | – | 0.955 | – | –
B. subtilis 168, partner 0.78 µg/mL | 0.931 | 0.894 | – | 0.968 | – | –
B. subtilis 168, partner 1.56 µg/mL | 0.959 | 0.929 | – | 0.915 | – | –
S. aureus DSM 20231, partner 0.39 µg/mL | – | – | ≥ 1 | – | ≥ 1 | ≥ 1
S. aureus DSM 20231, partner 0.78 µg/mL | – | – | ≥ 1 | – | ≥ 1 | ≥ 1
S. aureus DSM 20231, partner 1.56 µg/mL | – | – | 1 | – | ≥ 1 | ≥ 1
S. aureus Newman, partner 0.39 µg/mL | – | – | ≥ 1 | – | ≥ 1 | ≥ 1
S. aureus Newman, partner 0.78 µg/mL | – | – | 0.999 | – | 0.977 | 0.989
S. aureus Newman, partner 1.56 µg/mL | – | – | ≥ 1 | – | 0.998 | ≥ 1

fitness, S. aureus DSM 20231, one replicate
Settings | first compound 0.375 µg/mL | first compound 0.75 µg/mL | first compound 1.5 µg/mL
partner 3.12 µg/mL | ≥ 1 | ≥ 1 | 0.977
partner 6.24 µg/mL | 0.748 | 0.718 | 0.687
